The values below come from PMC4128063, “Investigating G protein signalling bias at the glucagon-like peptide-1 receptor in yeast” (British Journal of Pharmacology, 2014).

Assay type in all cases: cell-based
One assay concerns the target GLP-1 receptor (Homo sapiens, UniProt P43220). In words: G protein signalling bias, GPA1/Gαs versus GPA1/Gαi, yeast assays. Particulars: normalized responses at equivalent ligand concentrations.
Assay [1] addresses GLP-1 receptor (GPA1/Gαs chimera) (Homo sapiens, UniProt P43220). Kind of assay: Yeast growth assay, GPA1/Gαs chimera strain expressing the GLP-1 receptor.
The target in assay [2] is GLP-1 receptor (GPA1/Gαi chimera) (Homo sapiens, UniProt P43220). Kind of assay: Yeast growth assay, GPA1/Gαi chimera strain expressing the GLP-1 receptor.
GLP-1 receptor (GPA1/Gαi chimera), sequence (P43220 24-463, change not shown): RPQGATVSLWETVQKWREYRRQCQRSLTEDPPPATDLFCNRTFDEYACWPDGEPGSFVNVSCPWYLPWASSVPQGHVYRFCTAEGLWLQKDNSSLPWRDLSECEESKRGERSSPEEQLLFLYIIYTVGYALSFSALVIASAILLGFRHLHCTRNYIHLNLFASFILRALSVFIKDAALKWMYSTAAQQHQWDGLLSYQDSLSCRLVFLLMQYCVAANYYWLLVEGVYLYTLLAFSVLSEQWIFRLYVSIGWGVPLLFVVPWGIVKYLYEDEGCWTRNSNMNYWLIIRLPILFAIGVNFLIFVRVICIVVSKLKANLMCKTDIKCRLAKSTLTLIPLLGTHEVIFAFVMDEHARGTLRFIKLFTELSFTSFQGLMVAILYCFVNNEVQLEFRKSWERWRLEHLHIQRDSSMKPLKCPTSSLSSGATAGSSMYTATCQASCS
Setting [3] is: yeast, 20 h, percentage of the maximum response achieved through activation of GPA1/Gαs, mean ± SEM, n = 5, SEM.
[4] abbreviates: yeast, 20 h, three-parameter logistic fit, mean ± SEM, n = 5, SEM.

Like-named read-outs stand apart in the source and are kept apart here.

GLP-1 receptor (GPA1/Gαs chimera), sequence (P43220 24-463, change not shown): as above
GLP-1 receptor, sequence (P43220 24-463): as the sequence (P43220 24-463, change not shown) above

`CC[S+]([O-])c1nc(-c2cccc(OCc3ccccc3)c2)cc(C(F)(F)F)n1` (centres unmarked) [BETP, 4-(3-benzyloxyphenyl)-2-ethylsulfinyl-6-(trifluoromethyl) pyrimidine]: the “Equimolar bias plot, GPA1/Gαs versus GPA1/Gαi” value at GLP-1 receptor is on record as “did not deviate from the no-bias line of unity”. The EC50 in assay [1] (pEC50 (GLP-1 receptor, GPA1/Gαs), non-peptide agonists, yeast, 20 h, three-parameter logistic fit, mean ± SEM, n = 5, SEM) was 7.94 nM; in assay [1] (value quoted in running text, read-out: EC50 (yeast, GPA1/Gαs)), 10 nM; in assay [2] (pEC50 (GLP-1 receptor, GPA1/Gαi), non-peptide agonists, yeast, 20 h, three-parameter logistic fit, mean ± SEM, n = 5, SEM), 15.8 nM; in assay [2] (value quoted in running text, read-out: EC50 (yeast, GPA1/Gαi)), 15 nM. Also, the Emax in assay [1] (read-out: Emax (GLP-1 receptor, non-peptide agonists), yeast, 20 h, percentage of the maximum response achieved through activation of GPA1/Gαs, mean ± SEM, n = 5, SEM) came to 100 ± 5.1%; in assay [2] (read-out: Emax (GLP-1 receptor, GPA1/Gαi), non-peptide agonists, yeast, 20 h, percentage of the maximum response achieved through activation of GPA1/Gαs, mean ± SEM, n = 5, SEM), 96.5 ± 4.3%.
As to `CC(C)(C)Nc1nc2cc(Cl)c(Cl)cc2nc1S(C)(=O)=O` [Compound 2, 6,7-dichloro-2-methylsulfonyl-3-N-tert-butylaminoquinoxaline], the “Emax (GLP-1 receptor, GPA1/Gαs), non-peptide agonists” value in assay [1] (setting [3]) was determined as 100 ± 7.3%. Besides, the “pEC50 (GLP-1 receptor, GPA1/Gαs), non-peptide agonists” value in assay [1] (setting [4]) turned out to be 8.6 ± 0.2. In addition, in assay [2] (setting [3]), the “Emax (GLP-1 receptor, GPA1/Gαi), non-peptide agonists” value was 67.5 ± 7.3 %. Moreover, in assay [2] (setting [4]), the “pEC50 (GLP-1 receptor, GPA1/Gαi), non-peptide agonists” value turned out to be 8.5 ± 0.3.
